Results reported in patent US9062078B2, “Substituted 7-azabicyles and their use as orexin receptor modulators” (priority 2013, dated 2015).
Read-outs that look alike come from different tables or passages of the source.

Assays:
human orexin 2 receptor = human orexin 2 receptor (Homo sapiens (Human), UniProt O43614); experiment: Human orexin 2 receptor radioligand binding (competitive, [3H]-EMPA, HEK293 cell preparations)
human orexin 1 receptor = human orexin 1 receptor (Homo sapiens (Human), UniProt O43613); experiment: Human orexin 1 receptor radioligand binding (competitive, [3H]-SB674042, CHO cell preparations)
Sequence of human orexin 1 receptor (O43613 whole entry): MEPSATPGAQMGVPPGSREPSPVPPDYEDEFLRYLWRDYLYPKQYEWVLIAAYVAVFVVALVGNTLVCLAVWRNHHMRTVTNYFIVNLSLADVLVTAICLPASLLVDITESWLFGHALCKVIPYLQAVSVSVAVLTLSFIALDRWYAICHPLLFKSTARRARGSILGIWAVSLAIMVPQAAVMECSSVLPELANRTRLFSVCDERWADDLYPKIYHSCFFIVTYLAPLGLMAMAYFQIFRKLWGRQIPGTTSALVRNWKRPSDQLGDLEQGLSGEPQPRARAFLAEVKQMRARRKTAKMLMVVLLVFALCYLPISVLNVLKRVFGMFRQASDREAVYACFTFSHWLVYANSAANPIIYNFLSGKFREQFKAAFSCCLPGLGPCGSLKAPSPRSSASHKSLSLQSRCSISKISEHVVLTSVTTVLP

rat orexin 1 receptor = rat orexin 1 receptor (Rattus norvegicus, UniProt P56718); experiment: Rat orexin 1 receptor radioligand binding (competitive, [3H]-SB674042, HEK293 cell preparations); settings: rat orexin 1 receptor, [3H]-SB674042 competition binding; read-out: rOX1 Ki (nm)
[1] = human orexin 2 receptor, [3H]-EMPA competition binding, read-out: hOX2 Ki (nm)
[2] = human orexin 1 receptor, [3H]-SB674042 competition binding, read-out: hOX1 Ki (nm)

Sequence of human orexin 2 receptor (O43614 whole entry): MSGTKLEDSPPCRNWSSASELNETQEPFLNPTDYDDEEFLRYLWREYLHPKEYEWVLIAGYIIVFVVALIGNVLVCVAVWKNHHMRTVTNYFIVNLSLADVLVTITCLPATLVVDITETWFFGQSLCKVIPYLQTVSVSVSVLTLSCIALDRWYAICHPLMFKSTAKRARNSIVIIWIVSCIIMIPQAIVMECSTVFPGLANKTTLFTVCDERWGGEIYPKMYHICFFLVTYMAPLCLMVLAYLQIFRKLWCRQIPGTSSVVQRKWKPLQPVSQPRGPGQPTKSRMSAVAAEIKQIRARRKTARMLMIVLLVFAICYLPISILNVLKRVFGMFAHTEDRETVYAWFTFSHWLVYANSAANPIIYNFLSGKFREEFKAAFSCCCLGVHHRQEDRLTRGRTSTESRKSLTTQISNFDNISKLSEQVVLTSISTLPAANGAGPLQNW

SMILES	Ki (human orexin 2 receptor; hOX2 Ki (nm))	Ki (human orexin 1 receptor; hOX1 Ki (nm))	Ki (human orexin 2 receptor; [1])	Ki (human orexin 1 receptor; [2])	Ki (rat orexin 1 receptor)
O=C(c1ccccc1-c1cccs1)N1C2CCC1C(COc1ccc(F)cn1)C2 (racemic) [Example 11, (±)-(2-(((5-fluoropyridin-2-yl)oxy)methyl)-7-azabicyclo[2.2.1]heptan-7-yl)(2-(thiophen-2-yl)phenyl)methanone]	12 nM	10 nM	–	–	–
Cc1ccc(-n2nccn2)c(C(=O)N2C3CCC2C(COc2nccc(C(F)(F)F)n2)C3)c1 (racemic) [Example 13, (±)-(5-methyl-2-(2H-1,2,3-triazol-2-yl)phenyl)(2-(((4-(trifluoromethyl)pyrimidin-2-yl)oxy)methyl)-7-azabicyclo[2.2.1]heptan-7-yl)methanone]	–	118 nM	109 nM	–	–
Cc1ccc(-n2nccn2)c(C(=O)N2C3CCC2C(COc2ccc(C(F)(F)F)cn2)C3)c1 (racemic) [Example 14, (±)-(5-methyl-2-(2H-1,2,3-triazol-2-yl)phenyl)(2-(((5-(trifluoromethyl)pyridin-2-yl)oxy)methyl)-7-azabicyclo[2.2.1]heptan-7-yl)methanone]	–	50 nM	71 nM	–	–
O=C(c1cc(F)ccc1-n1nccn1)N1C2CCC1C(CNc1nccc(C(F)(F)F)n1)C2 (racemic) [Example 171, (±)-(5-fluoro-2-(2H-1,2,3-triazol-2-yl)phenyl)(2-(((4-(trifluoromethyl)pyrimidin-2-yl)amino)methyl)-7-azabicyclo[2.2.1]heptan-7-yl)methanone]	–	–	–	1930 nM	–
O=C(c1cc(F)ccc1-n1nccn1)N1C2CCC1C(CNc1cccc(C(F)(F)F)n1)C2 (racemic) [Example 172, (±)-(5-fluoro-2-(2H-1,2,3-triazol-2-yl)phenyl)(2-(((6-(trifluoromethyl)pyridin-2-yl)amino)methyl)-7-azabicyclo[2.2.1]heptan-7-yl)methanone]	–	–	–	686 nM	–
O=C(c1ccccc1-n1nccn1)N1C2CCC1C(Nc1ncc(C(F)(F)F)cn1)C2 (racemic) [Example 221, (±)-(2-(2H-1,2,3-triazol-2-yl)phenyl)(2-(5-(trifluoromethyl)pyrimidin-2-yl)amino)-7-azabicyclo[2.2.1]heptan-7-yl)methanone]	–	–	–	200 nM	–
O=C(c1nc2ccccc2[nH]1)N1[C@@H]2CC[C@H]1[C@H](Nc1cnc(C(F)(F)F)cn1)C2 [Example 250, (1H-benzo[d]imidazol-2-yl)((1S,2R,4R)-2-((5-(trifluoromethyl)pyrazin-2-yl)amino)-7-azabicyclo[2.2.1]heptan-7-yl)methanone]	–	–	> 10000 nM	–	5650 nM
Cn1c(C(=O)N2[C@@H]3CC[C@H]2[C@H](Nc2cnc(C(F)(F)F)cn2)C3)nc2ccccc21 [Example 251, (1-methyl-1H-benzo[d]imidazol-2-yl)((1S,2R,4R)-2-((5-(trifluoromethyl)pyrazin-2-yl)amino)-7-azabicyclo[2.2.1]heptan-7-yl)methanone]	–	–	5300 nM	–	520 nM
Cc1nc2sccn2c1C(=O)N1[C@@H]2CC[C@H]1[C@H](Nc1cnc(C(F)(F)F)cn1)C2 [Example 259, (6-methylimidazo[2,1-b]thiazol-5-yl)((1S,2R,4R)-2-((5-(trifluoromethyl)pyrazin-2-yl)amino)-7-azabicyclo[2.2.1]heptan-7-yl)methanone]	–	–	> 10000 nM	–	> 10000 nM
COc1c(F)cccc1C(=O)N1C2CCC1C(Nc1nc(C)cc(C)n1)C2 (stereo not drawn) [Example 261, (2-((4,6-dimethylpyrimidin-2-yl)amino)-7-azabicyclo[2.2.1]heptan-7-yl)(3-fluoro-2-methoxyphenyl)methanone]	–	–	5000 nM	–	> 10000 nM
O=C(c1cccc(F)c1-c1ccnnc1)N1[C@@H]2CC[C@H]1[C@H](Nc1cnc(C(F)(F)F)cn1)C2 [Example 264, (3-fluoro-2-(pyridazin-4-yl)phenyl)((1S,2R,4R)-2-((5-(trifluoromethyl)pyrazin-2-yl)amino)-7-azabicyclo[2.2.1]heptan-7-yl)methanone]	–	–	> 10000 nM	–	1400 nM
Cc1cccc(C(=O)N2[C@@H]3CC[C@H]2[C@H](Nc2cnc(C(F)(F)F)cn2)C3)c1-c1ncco1 [Example 266, (3-methyl-2-(oxazol-2-yl)phenyl)((1S,2R,4R)-2-((5-(trifluoromethyl)pyrazin-2-yl)amino)-7-azabicyclo[2.2.1]heptan-7-yl)methanone]	–	–	121 nM	–	5 nM
O=C(c1cccc(F)c1-c1ccncc1)N1[C@@H]2CC[C@H]1[C@H](Nc1cnc(C(F)(F)F)cn1)C2 [Example 268, (3-fluoro-2-(pyridin-4-yl)phenyl)((1S,2R,4R)-2-((5-(trifluoromethyl)pyrazin-2-yl)amino)-7-azabicyclo[2.2.1]heptan-7-yl)methanone]	–	–	3700 nM	–	450 nM
O=C(c1cccc(F)c1-c1ncccn1)N1[C@@H]2CC[C@H]1[C@H](Nc1nccn3c(Br)cnc13)C2 [Example 270, ((1S,2R,4R)-2-((3-bromoimidazo[1,2-a]pyrazin-8-yl)amino)-7-azabicyclo[2.2.1]heptan-7-yl)(3-fluoro-2-(pyrimidin-2-yl)phenyl)methanone]	–	–	145 nM	–	325 nM
O=C(c1cccc(F)c1-c1ncccn1)N1[C@@H]2CC[C@H]1[C@H](Nc1nccn3c(C(F)(F)F)nnc13)C2 [Example 274]	–	–	2560 nM	–	> 10000 nM
COC(=O)c1cnc(N[C@@H]2C[C@H]3CC[C@@H]2N3C(=O)c2cccc(F)c2-c2ncccn2)cn1 [Example 275, methyl 5-(((1S,2R,4R)-7-(3-fluoro-2-(pyrimidin-2-yl)benzoyl)-7-azabicyclo[2.2.1]heptan-2-yl)amino)pyrazine-2-carboxylate]	–	–	> 10000 nM	–	> 10000 nM
O=C(c1cccc(F)c1I)N1[C@@H]2CC[C@H]1[C@H](Nc1ncc(C(F)(F)F)cn1)C2 [Example 277, (3-fluoro-2-iodophenyl)((1S,2R,4R)-2-((5-(trifluoromethyl)pyrimidin-2-yl)amino)-7-azabicyclo[2.2.1]heptan-7-yl)methanone]	–	–	7400 nM	–	457 nM
CN(c1cnc(C(F)(F)F)cn1)[C@@H]1C[C@H]2CC[C@@H]1N2C(=O)c1cccc(F)c1-c1ncccn1 [Example 282, (3-fluoro-2-(pyrimidin-2-yl)phenyl)((1S,2R,4R)-2-(methyl(5-(trifluoromethyl)pyrazin-2-yl)amino)-7-azabicyclo[2.2.1]heptan-7-yl)methanone]	–	–	> 10000 nM	–	486 nM
CCOc1ccc(C)nc1C(=O)N1[C@@H]2CC[C@H]1[C@H](Nc1cnc(C(F)(F)F)cn1)C2 [Example 287, (3-ethoxy-6-methylpyridin-2-yl)((1S,2R,4R)-2-((5-(trifluoromethyl)pyrazin-2-yl)amino)-7-azabicyclo[2.2.1]heptan-7-yl)methanone]	–	–	767 nM	–	472 nM
COc1cccc(-c2c(C)cnn2C)c1C(=O)N1[C@@H]2CC[C@H]1[C@H](Nc1cnc(C(F)(F)F)cn1)C2 [Example 292, (2-(1,4-dimethyl-1H-pyrazol-5-yl)-6-methoxyphenyl)((1S,2R,4R)-2-((5-(trifluoromethyl)pyrazin-2-yl)amino)-7-azabicyclo[2.2.1]heptan-7-yl)methanone]	–	–	> 10000 nM	–	> 10000 nM
O=C(c1cccc(F)c1-c1ncccn1)N1[C@H]2CC[C@@H]1[C@@H](Nc1cnc(C(F)(F)F)cn1)C2 [Example 297, (3-fluoro-2-(pyrimidin-2-yl)phenyl)((1R,2S,4S)-2-((5-(trifluoromethyl)pyrazin-2-yl)amino)-7-azabicyclo[2.2.1]heptan-7-yl)methanone]	–	–	> 10000 nM	–	> 10000 nM
